Read-outs that look alike come from different tables or passages of the source.
Assay: Example 18 Part 1: single ascending dose PK (5-30 mg) in slow and fast acetylators
Format: in vivo, human
Settings: for half-life / Cmax: both sexes, human, plasma; for half-life: oral, 5-30 mg, read-out: Mean terminal elimination half-lives; for Cmax: po, single oral doses 5 to 30 mg, read-out: mean Cmax, range over doses
Method: The following method was used to analyze concentrations of 3,4-diaminopyridine and N-(4-aminopyridin-3-yl)acetamide in plasma and urine samples for the experiments in Example 18. In the LC/MS/MS method, the human plasma and urine samples were extracted using acetonitrile containing 0.1% formic acid. Samples were analyzed by using HPLC with positive ion electrospray MS/MS detection. The column was an Atlantis HILIC Silica column (3 μm, 3×50 mm) at a temperature of 40° C. Mobile phase A was water containing ammonium formate (20 mM) and 0.1% formic acid. Mobile phase B was acetonitrile/isopropanol (90/10; v/v) containing 0.1% formic acid. The flow rate was 0.90 mL/minute. The gradient conditions for human plasma and urine samples were as follows:
The LC/MS/MS method was validated to quantify 3,4-DAP in human plasma in the linear calibration range of 0.500 to 500 ng/mL and from 1.00 to 1000 ng/mL for the 3-N-acetyl metabolite.
The primary objective of the study was to assess the safety and tolerability of 3,4-DAP phosphate after single and multiple doses. The secondary objectives of the study were • Part 1 only: To determine the dose-related PK profile of amifampridine and of 3-N-acetyl amifampridine after single, escalating doses of 3,4-DAP phosphate • Part 2 only: To assess the steady-state plasma PK and accumulation of amifampridine and of 3-N-acetyl amifampridine over multiple days of dosing with 3,4-DAP phosphate An exploratory objective was to examine the overall activity of the N-acetyl transferase enzymes on the metabolism of amifampridine by assessing the PK of amifampridine and 3-N-acetyl amifampridine with phenotypic acetylation activity and genotyping determination of NAT2 gene polymorphisms. Study Design and Plan
This open-label study in healthy subjects (male and female) was conducted in 2 parts. A total of 26 healthy male and female subjects, 12 in Part 1 (at least 5 of each sex), 4 in Part 2 Group 1, and 10 in Part 2 Group 2 (at least 4 of each sex) were enrolled into the study. The same subjects were not enrolled to participate in both parts. Subjects in Part 2 were dosed only after all subjects of Part 1 completed dosing and at least 24-hours of follow-up safety evaluation after the last dose were completed.
All subjects were characterized for their metabolic acetylation phenotype and NAT2 genotype in order to divide subjects into two groups of acetylators. Volunteers were genetically typed for highly variant alleles of the N-acetyl transferase 2 enzyme (NAT2) domain on chromosome 8 (according to Example 16) and were phenotyped for acetylation rates with a caffeine challenge test (according to Example 15a). Approximately equal numbers of slow and fast acetylators (as defined by a caffeine challenge test in Example 15a) were enrolled in each group. In Part 2, very slow acetylators with NAT2 activity (ratio 1, Example 15a) below 0.06 were excluded from participation in the study. In each part of the study, subjects were assessed for PK, safety, and tolerability and all doses were administered within 30 min of ingestion of a meal or a snack.
Part 1 was a dose-proportionality study in 12 healthy subjects each receiving 4 ascending single oral doses of 3,4-DAP phosphate in a sequential manner (5 mg, 10 mg, 20 mg, and 30 mg). For all 12 subjects, the first 3 doses of oral 3,4-DAP phosphate (5-20 mg) were administered on 3 consecutive days (Days 1-3). Two fast and two slow acetylators (as defined by a caffeine challenge test in Example 15a) were selected as the first 4 enrolled subjects (sentinel subjects). For the 2 fast acetylators the 30 mg dose was administered on Day 4. […] Safety and tolerability data collected for all 4 subjects were reviewed and the safety and tolerability results of the 30 mg dose for these 4 sentinel subjects were acceptable. The 30 mg dose was given to the remaining 8 non-sentinel subjects on Day 7. […]

## Nc1ccncc1N [3,4-DAP, 3,4-diaminopyridine]
5 mg single dose
  Mean AUC0-t Slow/fast Ratio: 10.4
  Mean CL/F Slow/fast Ratio: 0.114
  Mean Cmax Slow/fast Ratio: 4.50
  Mean t1/2 Slow/fast Ratio: 3.68
10 mg single dose
  Mean AUC0-t Slow/fast Ratio: 6.94
  Mean CL/F Slow/fast Ratio: 0.163
  Mean Cmax Slow/fast Ratio: 3.47
  Mean t1/2 Slow/fast Ratio: 2.15
20 mg single dose
  Mean AUC0-t Slow/fast Ratio: 5.75
  Mean CL/F Slow/fast Ratio: 0.186
  Mean Cmax Slow/fast Ratio: 3.50
  Mean t1/2 Slow/fast Ratio: 2.38
30 mg single dose
  Mean AUC0-t Slow/fast Ratio: 5.29
  Mean CL/F Slow/fast Ratio: 0.196
  Mean Cmax Slow/fast Ratio: 3.51
  Mean t1/2 Slow/fast Ratio: 1.88
Fast acetylators
  half-life: 36.2 to 99 min
  AUC increase over 6-fold dose range (5 to 30 mg): 15.1 fold
  Cmax increase over 6-fold dose range (5 to 30 mg): 6.41 fold
Slow acetylators
  half-life: 133 to 187 min
  AUC increase over 6-fold dose range (5 to 30 mg): 7.64 fold
  Cmax increase over 6-fold dose range (5 to 30 mg): 5.01 fold
Fast acetylator phenotype
  Cmax: 3.98 to 25.5 ng/mL
Slow acetylator phenotype
  Cmax: 17.9 to 89.6 ng/mL
